# Source: patent US9561201B2, “Therapeutic compounds” (Fibrotech Therapeutics Pty Ltd, priority 2006, dated 2017)
# Columns and labels:
# [1] = system: rat mesangial cell line; test: TGF-β stimulated 3H-proline incorporation in mesangial cells (Example 5); format: cell-based; conditions: for Mesangial Cell Assay TGF-β % reduction of TGF-β stimulation_proline inc.: 5 ng/mL TGF-β1, 44 h
# [2] = system: rat mesangial cell line; test: Effect on mesangial cell appearance (visual monitoring during proline assay); format: cell-based; conditions: @ 100 μM
# [3] = system: neonatal SD rat cardiac fibroblasts; test: TGF-β-stimulated fibrosis (proline incorporation) in neonatal cardiac fibroblasts (Example 4); format: cell-based
# Experimental: (§1) Matrix synthesis may be stimulated by both angiotensin II or transforming growth factor beta (TGF-β).
# (§2) Neonatal SD rat cardiac fibroblasts (NCFs) were isolated from one-day-old pups with enzymatic digestion. NCFs were purified by percoll gradient and seeded with DMEM in the present of 1% antibiotic/antimycotic (AB/AM) and 10% fatal bovine serum (FBS). NCFs were then subcultured when they are about 80% confluence. The second passage of NCFs was used for the assays.
# (§3) NCFs were seeded at 25,000 cells/well in 12-well plates and incubated at 37° C. and 5% CO2 overnight in DMEM with 1% AB/AM and 10% FBS. Cells were then washed with DMEM and then the media replaced with DMEM/F12 with 1% AB/AM, 0.5% Bovine Serum Albumin (BSA) and Vitamin C, before being incubated at 37° C. and 5% CO2 for 24 hours.
# (§4) The effect of FT011 on TGF-β- or angiotensin II-stimulated fibrosis in the neonatal SD rat cardiac fibroblasts was investigated.
# [4] = system: neonatal SD rat cardiac fibroblasts; test: Angiotensin II-stimulated fibrosis (proline incorporation) in neonatal cardiac fibroblasts (Example 4); format: cell-based
# Experimental: as §1, §2, §3, §4
# [5] = system: Neonatal rat cardiac fibroblasts (NCFs); test: NCF TGF-β collagen synthesis, 3H-proline incorporation (Example 6); format: cell-based
# Experimental: Neonatal SD rat cardiac myocytes (NCMs) and fibroblasts (NCFs) were isolated from one-day-old pups with enzymatic digestion as described in detail previously. NCFs were seeded and maintained in high-glucose (25 mmol/L) Dulbecco's modified Eagle's medium (DMEM) (Invitrogen Mount Waverley, Vic, Australia) in the presence of 1% antibiotic/antimycotic (AB/AM) and 10% fetal bovine serum (FBS) (JRH biosciences, Kansas, USA). NCFs were used at passage 2 [31]. Purified NCMs were seeded (1000 cells/mm^2) in 6-well plates and then maintained in serum-free DMEM (Invitrogen, NY, USA) supplemented with insulin and transferrin as described previously (4). Bromodeoxyuridine was included for the first 3 days. 50 mmol/L KCl was added to the medium to prevent spontaneous contraction characteristic of the plated NCMs.
# NCFs collagen synthesis assays were performed as described previously. Briefly, NCFs plated at a density of 50,000 cells/well in 12-well plate and incubated overnight. NCFs were then serum starved for 24 hours in high-glucose DMEM. […]
# For collagen synthesis, 1 μCi of [^3H]-Proline was added to each well and incubated for further 48 hours before harvest. Cells were harvested by precipitation with 10% TCA on ice for 30 min, before solubilisation with 0.75 mL of 1 mol/L NaOH overnight at 4° C. The samples were then neutralized with 1 mol/L HCl and ^3H level were counted with 10 ml scintillation fluid on a beta-counter to determine [^3H]-proline incorporation.
# [6] = Pilot study (toxicity assessment), 2 weeks oral gavage; format: in vivo, Sprague-Dawley (SD) rats; conditions: for ALT / Body weight / Plasma Creatinine / Plasma Urate: 2 weeks
# Experimental: A total of twenty male Sprague-Dawley (SD) rats weighing 200-250 g were randomised to either FT011 (Fibrotech Therapeutics Pty Ltd, Melbourne, Australia) or Tranilast (Pharm Chemical, Shanghai Lansheng Corporation, China) at the dose of 50 mg, 100 mg, 200 mg and 400 mg/kg/day by gavage twice daily (n=2-3 per group). A control group of animals were gavaged with vehicle (1% carboxy methyl cellulose). The study was conducted for 2 weeks. Animals were bled daily at one, four, and eight hours after oral gavage to measure the plasma concentration. Serum was also collected to assess renal and liver function at the end of the study (plasma creatine and urate, ALT and bilirubin). Rats were individually housed in metabolic cages at the end of the study, habituated for 2 to 3 hours, and urine collected over 24 hours. Animals continued to have free access to tap water and standard laboratory chow during this period. The biochemistry tests performed at the department of pathology, St Vincent's hospital. Major organs including lung, heart, liver, spleen and kidney were harvested and immersed fix with 10% neutral buffered formalin and then embedded paraffin for subsequent light microscope examination.
structure (smiles),measurement,setting,value
C#CCOc1ccc(/C=C/C(=O)Nc2ccccc2C(=O)O)cc1OC [Analogue 11],Mesangial Cell Assay TGF-β % reduction of TGF-β stimulation_proline inc.,[1]; @ 3 μM,15% @ 3
same,Mesangial Cell Assay TGF-β % reduction of TGF-β stimulation_proline inc.,[1]; @ 10 μM,20-50% @ 10
same,Mesangial Cell Assay TGF-β % reduction of TGF-β stimulation_proline inc.,[1]; @ 30 μM,50-75% @ 30
same,Mesangial Cell Assay TGF-β % reduction of TGF-β stimulation_proline inc.,[1]; @ 100 μM,60-100% @ 100
same,Collagen synthesis,[1]; inhibition ranked against tranilast (T) or FT11,>T
same,Effect on mesangial cell appearance,[2],stress @
same,TGF-β-stimulated fibrosis (proline incorporation),[3],inhibited
same,angiotensin II-stimulated fibrosis (proline incorporation),[4],inhibited
same,NCF TGF-β Collagen Synthesis,[5]; @ 30 μM,32% @ 30 μM
same,NCF TGF-β Collagen Synthesis,[5]; @ 100 μM,87% @ 100 μM
same,ALT,[6]; 50 mg/kg/day gavage,41 ± 1
same,Body weight,[6]; 50 mg/kg/day gavage,313 ± 24 Gram
same,Plasma Creatinine,[6]; 50 mg/kg/day gavage,38 ± 2 µmol/L
same,Plasma Urate,[6]; 50 mg/kg/day gavage,<0.09 mmol/L
same,ALT,[6]; 100 mg/kg/day gavage,44 ± 2
same,Body weight,[6]; 100 mg/kg/day gavage,308 ± 22 Gram
same,Plasma Creatinine,[6]; 100 mg/kg/day gavage,39 ± 0.5 µmol/L
same,Plasma Urate,[6]; 100 mg/kg/day gavage,<0.09 mmol/L
same,ALT,[6]; 200 mg/kg/day gavage,36 ± 0.5
same,Body weight,[6]; 200 mg/kg/day gavage,301 ± 8 Gram
same,Plasma Creatinine,[6]; 200 mg/kg/day gavage,37 ± 0.6 µmol/L
same,Plasma Urate,[6]; 200 mg/kg/day gavage,<0.09 mmol/L
same,ALT,[6]; 400 mg/kg/day gavage,32 ± 4.4
same,Body weight,[6]; 400 mg/kg/day gavage,264 ± 29 Gram
same,Plasma Creatinine,[6]; 400 mg/kg/day gavage,36 ± 3.9 µmol/L
same,Plasma Urate,[6]; 400 mg/kg/day gavage,<0.09 mmol/L
same,level of FT011 measured in plasma,"[6]; following gavage, 50-400 mg/kg/day",increased in a dose dependent manner
same,level of FT011 measured in urine,"[6]; rats treated with FT011, 24 h urine",significant level
